Test results: publication PMC7948422, “Repurposing p97 inhibitors for chemical modulation of the bacterial ClpB–DnaK bichaperone system” (The Journal of Biological Chemistry, 2020)
Values joined by “and” are separate entries in the source; they are usually repeats but may differ in a detail not shown here. Identical values can stand only once. “Also recorded” adds a separate entry of the source.

Legend:
[1] = biological target: T1, E. coli ClpB (Escherichia coli, UniProt P63284); assay type: biochemical
T1 construct: made in house
T1 sequence (P63284 whole entry): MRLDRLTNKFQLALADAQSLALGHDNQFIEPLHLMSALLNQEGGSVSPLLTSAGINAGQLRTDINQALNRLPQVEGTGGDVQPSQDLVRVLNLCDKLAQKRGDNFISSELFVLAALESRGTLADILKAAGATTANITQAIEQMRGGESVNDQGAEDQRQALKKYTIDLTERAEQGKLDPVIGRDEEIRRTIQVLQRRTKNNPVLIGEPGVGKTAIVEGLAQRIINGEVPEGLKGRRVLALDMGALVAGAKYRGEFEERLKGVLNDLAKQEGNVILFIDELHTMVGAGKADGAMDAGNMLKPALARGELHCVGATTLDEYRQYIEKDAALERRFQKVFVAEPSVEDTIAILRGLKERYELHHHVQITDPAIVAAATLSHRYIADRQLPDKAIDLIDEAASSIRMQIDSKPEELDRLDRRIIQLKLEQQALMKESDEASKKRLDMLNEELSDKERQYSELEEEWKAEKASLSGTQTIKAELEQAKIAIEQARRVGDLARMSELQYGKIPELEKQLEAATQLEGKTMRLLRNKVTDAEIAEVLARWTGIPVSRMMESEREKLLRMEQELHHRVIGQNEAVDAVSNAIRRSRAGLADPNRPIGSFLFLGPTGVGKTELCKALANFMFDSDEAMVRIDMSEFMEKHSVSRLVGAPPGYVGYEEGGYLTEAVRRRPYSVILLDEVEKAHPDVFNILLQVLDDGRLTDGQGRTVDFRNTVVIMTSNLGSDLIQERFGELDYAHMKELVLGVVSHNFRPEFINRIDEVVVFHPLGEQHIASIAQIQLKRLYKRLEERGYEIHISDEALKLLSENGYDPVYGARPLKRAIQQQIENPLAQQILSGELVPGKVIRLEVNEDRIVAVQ
Description: To determine the ATPase activity, ClpB was diluted to 28 μg/ml (49-nM hexamer) in buffer C (50-mM Tris-HCl, pH 7.4, 20-mM MgCl2, 1-mM EDTA, 0.5-mM tris(2-carboxyethyl)phosphine [TCEP]). In some experiments, the ClpB solution was supplemented with 17.4 μg/ml (10 μM) κ-casein. The ClpB aliquots (18 μl) were mixed with 1 μl of the investigated compounds at different concentrations in 100% DMSO or with DMSO as a control. A sample without ClpB was used as a baseline control. After a 10-min preincubation at 37 or 45 °C, the ATP hydrolysis reaction was initiated by adding 1 μl of 100-mM ATP. The samples were incubated for 60 min (basal ClpB activity in the absence of κ-casein) or 15 min (in the presence of κ-casein) at 37 °C or 30 min at 45 °C in the absence of casein. For the E678Q ClpB variant, the incubation time in the presence of κ-casein was 60 min. After incubation, 15 μl of each sample was mixed with 200 μl of the ammonium molybdate/malachite green reagent ([67]) dispensed into a 96-well plate, followed by an addition of 30 μl of 34% sodium citrate ([68]). The plate was agitated inside a Synergy H1 reader (BioTek, Winooski, VT) for 15 min at room temperature, and the samples’ absorbance was measured at 630 nm. The readouts for ClpB-containing samples were corrected for absorbance of samples without ClpB, to account for nonenzymatic production of inorganic phosphate. A standard curve obtained with different inorganic phosphate concentrations was used to determine the amount of phosphate produced from ATP in the presence of ClpB.

[2] = biological target: T2, wt ClpB (Escherichia coli, UniProt P63284); experiment: Surface plasmon resonance, immobilized wt ClpB; assay type: binding
T2 construct: made in house
T2 sequence (P63284 whole entry): as above
Description: ClpB, DnaK, and the NBD of DnaK were extensively dialyzed against the SPR buffer (20-mM Hepes, pH 7.4, 150-mM NaCl, 20-mM MgCl2, 1-mM EDTA, 1-mM DTT). After dialysis, the protein concentration was determined by the Bradford method. The DBeQ–protein interactions were studied using a Biacore T200 instrument (GE Healthcare) at 25 °C. The proteins were diluted to 300 μg/ml in 10-mM sodium acetate buffer (pH 5 for ClpB DnaK or pH 4 for NBD) and immobilized on HC1500M sensor chips (Xantec) by standard amine coupling chemistry as described previously ([70]). A reference flow cell was created by ethyl(dimethylaminopropyl) carbodiimide/N-hydroxysuccinimide activation followed by quenching with 1 M ethanolamine (pH 9.0). Solvent correction curves were obtained at the beginning and end and after every 50 injection cycles by injecting varying DMSO concentrations (4.0, 4.4, 4.6, 4.8, 5.0, 5.2, 5.4, and 5.9% [v/v]). All experiments were performed using a flow rate of 30 μl/min.
Binding isotherms were obtained with the ligand diluted to different concentrations in the SPR running buffer HBSMTD (20-mM Hepes, pH 7.4, 140-mM NaCl, 20-mM MgCl2, 5% (v/v) DMSO, 0.005% (v/v) Tween-20). Replicate injections were performed for all samples, and a buffer-only injection was performed for every 12 injection cycles. To test the structural integrity of ClpB after immobilization on the sensor chips, we performed control titrations with ATPγS and adenosine. The dissociation constants determined from those experiments were ∼20 μM for ATPγS and ∼2 mM for adenosine. […] Moreover, the immobilized ClpB discriminated between a nucleotide analog and a nucleoside, which indicated an adequate structural integrity of ClpB on the sensor chips.
The resulting sensorgrams were analyzed using Biacore T200 Evaluation Software v3.0 according to the following procedure. Solvent correction curves were generated and applied to all data sets, and all sensorgrams were double-referenced by subtracting the most recent buffer blank injection. The signal immediately before injection stop of these corrected sensorgrams was treated as the binding response. GraphPad Prism was used for nonlinear least-squares fitting of the model assuming either noncooperative or cooperative binding of DBeQ to DnaK and ClpB, respectively.

[3] = system: ClpB-YFP in dnaK103 E. coli; experiment: Confocal microscopy of ClpB-YFP localization; assay type: cell-based, Escherichia coli; details: dnaK103, 100-μM DBeQ, 45 °C 30 min
Description: ClpB-YFP and Luciferase-YFP were expressed at low levels in E. coli strains ΔclpB, dnaK103, and dnaK756 as described before ([44]). The expression of ClpB-YFP and YFP-Luciferase was initiated by addition of 200-μM IPTG or 0.02% (w/v) arabinose, respectively. The bacterial cells were cultured at 30 °C with 100-μM DBeQ or DMSO only. Protein translation was stopped by addition of erythromycin (30 μg/ml), and each culture was divided into two samples. One sample remained at 30 °C (control), whereas the other sample was transferred to 45 °C for 30 min (heat-shock conditions).
A thin layer of 1% agarose (TopVision Low Melting Point Agarose, Thermo Scientific) was prepared on a clean microscope glass slide. A small drop of 1% agarose was placed near the frosted end of the glass slide while bringing a second glass slide at a 30 to 45° angle from above, allowing the agarose drop to spread along the contact edge. […] An E. coli culture sample (1 μl) was immediately placed on the agarose-covered glass slide, covered with a cover slip, and used for fluorescence imaging.
Fluorescence imaging was performed using a Carl Zeiss LSM 880 Airyscan confocal microscope equipped with a Plan-Apochromat 63x/1.40 Oil DIC M27 objective coupled with a YFP Filter (excitation at 514 nm, emission at 561 nm, laser strength 0.98%). […]

SMILES: c1ccc(CNc2nc(NCc3ccccc3)c3ccccc3n2)cc1 [DBeQ, N^2,N^4-dibenzylquinazoline-2,4-diamine]
- inhibition of the basal ClpB ATPase ([1]; 100 μM compound, no casein, 37 °C): None of the above compounds, except C3, showed a significant inhibition
- inhibition of the ClpB ATPase in the presence of casein ([1]; 100 μM compound, with κ-casein, 37 °C): strongly inhibited
- effect on basal ClpB ATPase under heat-shock conditions ([1]; 45 °C, no casein): unaffected; also recorded: does not inhibit
- Bmax (SPR signal at saturation), ClpB [2]: 1.09 ± 0.02
- Hill coefficient, DBeQ binding to ClpB ([2]; SPR, cooperative binding model): 2.3 ± 0.3 and ~2.3 and > 2
- Kd ([2]; apparent Kd, DBeQ binding to ClpB, SPR, 25 °C, cooperative binding model): 64.4 µM and ~60 µM
- ClpB-YFP localization with aggregates [3]: ClpB colocalizes with the aggregates even in dnaK103
